The text below walks through data of patent US20240199546A1, “INHIBITORS OF SOLUTE CARRIER FAMILY 6A MEMBER 19 (SLC6A19) AND METHODS OF USE THEREOF” (Maze Therapeutics, Inc., priority 2022, published 2024).

For experiment [1], the target named is T1, human SLC6A19 and TMEM27 (Homo sapiens, UniProt Q695T7).
T1 construct: expressed in transfected cells
T1 sequence (Q695T7 1-634): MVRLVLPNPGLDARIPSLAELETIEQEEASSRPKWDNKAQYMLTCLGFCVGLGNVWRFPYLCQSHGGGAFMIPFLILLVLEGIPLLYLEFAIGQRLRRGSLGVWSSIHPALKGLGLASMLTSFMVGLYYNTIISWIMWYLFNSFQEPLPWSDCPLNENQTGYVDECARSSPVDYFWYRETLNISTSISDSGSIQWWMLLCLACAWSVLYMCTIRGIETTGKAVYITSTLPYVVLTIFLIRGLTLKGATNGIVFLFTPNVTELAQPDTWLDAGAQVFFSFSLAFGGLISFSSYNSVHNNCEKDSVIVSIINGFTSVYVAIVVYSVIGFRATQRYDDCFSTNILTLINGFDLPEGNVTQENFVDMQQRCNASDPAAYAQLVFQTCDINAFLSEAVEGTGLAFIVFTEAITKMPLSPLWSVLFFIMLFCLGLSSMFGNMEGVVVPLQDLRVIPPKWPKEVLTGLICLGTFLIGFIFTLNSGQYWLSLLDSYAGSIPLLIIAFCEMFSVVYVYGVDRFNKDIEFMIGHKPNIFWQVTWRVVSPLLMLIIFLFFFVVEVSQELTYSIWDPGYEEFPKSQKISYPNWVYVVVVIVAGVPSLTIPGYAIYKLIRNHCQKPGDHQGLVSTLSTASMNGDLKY
T1 sequence (Q9HBJ8 15-222 partner): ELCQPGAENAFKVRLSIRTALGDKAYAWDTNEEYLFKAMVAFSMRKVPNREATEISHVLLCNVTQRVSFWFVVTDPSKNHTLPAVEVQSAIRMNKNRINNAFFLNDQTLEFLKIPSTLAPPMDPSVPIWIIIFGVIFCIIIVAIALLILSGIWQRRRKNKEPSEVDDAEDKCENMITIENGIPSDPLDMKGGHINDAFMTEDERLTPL
In words: Radiolabelled (3H) leucine uptake in CHO cells with doxycycline-inducible expression of human SLC6A19 and TMEM27 (Example B-1). To be noted: CHO cells with doxycycline-inducible expression of human SLC6A19 and TMEM27, read-out: SLC6A19_Radioligand Uptake Assay IC50. The class given is cell-based. Put shortly:
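CHO cells were induced with doxycycline for 18 h at 37 °C, washed in HBSS, then exposed to compounds for 1 h: 8-point, 3-fold dilutions in duplicate, 0.5% DMSO final. Uptake measured by scintillation counting after 2 h shaking. Activity normalized with positive control as 0% and DMSO as 100%.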

The target of experiment [2] is T1, human SLC6A19 and TMEM27. The experiment is described as follows: 13C6,15N-isoleucine uptake in CHO cells with doxycycline-inducible expression of human SLC6A19 and TMEM27, RapidFire mass spectrometry (Example B-2). It is filed as cell-based. To be noted: read-out: SLC6A19_RapidFire Uptake Assay IC50. The gist of the method:
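CHO cells induced overnight with doxycycline to express human SLC6A19 plus TMEM27; 20 min preincubation with compound (10-point 2-fold series, duplicate) at 37 °C in HEPES buffer pH 7.2, then 20 min with 13C6,15N-isoleucine. Intracellular label quantified by RapidFire MS against 13C-leucine standard; positive control defined 100% inhibition.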

A value given as a limit tells only on which side of the number the result lay.

`CC1(C(=O)NCc2cc3cc(Cl)c(OCc4cncc(F)c4)cc3[nH]2)CC1` [Compound 36, N-((5-chloro-6-((5-fluoropyridin-3-yl)methoxy)-1H-indol-2-yl)methyl)-1-methylcyclopropane-1-carboxamide]: the IC50 (commonly the concentration that gives 50% inhibition) turned out to be 716 nM at human SLC6A19 and TMEM27 [1]; 316 nM on human SLC6A19 and TMEM27 [2]. On the same counts, the results for `O=C(NCc1cc2cc(Cl)c(OCc3cocn3)cc2[nH]1)N1CCC1` [Compound 403, N-((5-chloro-6-(oxazol-4-ylmethoxy)-1H-indol-2-yl)methyl)azetidine-1-carboxamide] are 407 nM and 519 nM. For the molecule `CC1(C(=O)NCc2cc3cc(Cl)c(CNc4ccon4)cc3[nH]2)CC1` [Compound 608, N-((5-chloro-6-((isoxazol-3-ylamino)methyl)-1H-indol-2-yl)methyl)-1-methylcyclopropane-1-carboxamide], the IC50 worked out at 304 nM at human SLC6A19 and TMEM27 [1]; 457 nM on human SLC6A19 and TMEM27 [2]. As for `COc1cc2cc(CNC(=O)C3(C)CC3)[nH]c2cc1CCc1cscn1` [Compound 631, N-((5-methoxy-6-(2-(thiazol-4-yl)ethyl)-1H-indol-2-yl)methyl)-1-methylcyclopropane-1-carboxamide], the half-maximal inhibitory concentration (IC50) at human SLC6A19 and TMEM27 [1] came out at 210 nM; on human SLC6A19 and TMEM27 [2], 149 nM. The like results for `CNC(=O)NCc1cc2cc(F)c(OCc3ccon3)cc2[nH]1` [Compound 216, 1-((5-fluoro-6-(isoxazol-3-ylmethoxy)-1H-indol-2-yl)methyl)-3-methylurea] were, in that order, 1410 nM and 3740 nM. The like results for `CCC(=O)NCc1cc2cc(C)c(OCc3cscn3)cc2[nH]1` [Compound 529, N-((5-methyl-6-(thiazol-4-ylmethoxy)-1H-indol-2-yl)methyl)propionamide] were, in that order, 192 nM and 154 nM. The like results for `O=C(NCc1cc2cc(OC(F)(F)F)c(CCc3cscn3)cc2[nH]1)N1CCCC1` [Compound 419, N-((6-(2-(thiazol-4-yl)ethyl)-5-(trifluoromethoxy)-1H-indol-2-yl)methyl)pyrrolidine-1-carboxamide] were, in that order, 435 nM and 159 nM. For the molecule `Cc1ccc(COc2cc3[nH]c(CNC(=O)C4(C)CC4)cc3cc2Cl)cn1` [Compound 37, N-((5-chloro-6-((6-methylpyridin-3-yl)methoxy)-1H-indol-2-yl)methyl)-1-methylcyclopropane-1-carboxamide], the concentration for half-maximal inhibition (IC50) on human SLC6A19 and TMEM27 [2] was 625 nM. Same read-out and setting: under `CC1(C(=O)NCc2cc3ccc(OCc4csnn4)cc3[nH]2)CC1` [Compound 170, N-((6-((1,2,3-thiadiazol-4-yl)methoxy)-1H-indol-2-yl)methyl)-1-methylcyclopropane-1-carboxamide] stands 187 nM; under `O=C(NCc1cc2ccc(OCc3cocn3)cc2[nH]1)N1CCCC1` [Compound 105, N-((6-(oxazol-4-ylmethoxy)-1H-indol-2-yl)methyl)pyrrolidine-1-carboxamide], 644 nM.

`Cc1cc(CCc2ccc3cc(CNC(=O)C4(C)CC4)[nH]c3c2)no1` [Compound 77, 1-methyl-N-((6-(2-(5-methylisoxazol-3-yl)ethyl)-1H-indol-2-yl)methyl)cyclopropane-1-carboxamide]: the half-inhibitory concentration (IC50) at human SLC6A19 and TMEM27 [2] was found to be 355 nM. Turning to `Cc1cc(Cc2ccc3cc(CNC(=O)C4(C)CC4)[nH]c3c2)no1` [Compound 160, 1-methyl-N-((6-((5-methylisoxazol-3-yl)methyl)-1H-indol-2-yl)methyl)cyclopropanecarboxamide], the half-inhibitory concentration (IC50) at human SLC6A19 and TMEM27 [2] is over 50000 nM. Consider `Cc1cccc(COc2cc3[nH]c(CNC(=O)C4(C)CC4)cc3cc2Cl)n1` [Compound 42, N-((5-chloro-6-((6-methylpyridin-2-yl)methoxy)-1H-indol-2-yl)methyl)-1-methylcyclopropane-1-carboxamide], for which the IC50 at human SLC6A19 and TMEM27 [2] is 1620 nM. `CC1(C(=O)NCc2cc3ccc(OCc4ncccn4)cc3[nH]2)CC1` [Compound 51, 1-methyl-N-((6-(pyrimidin-2-ylmethoxy)-1H-indol-2-yl)methyl)cyclopropane-1-carboxamide]: the 50% inhibitory concentration (IC50) at human SLC6A19 and TMEM27 [2] is 4390 nM.
